Values of other authors as cited in patent publication US8188047B2, “Therapeutic and cosmetic compositions for treatment of skin” (priority 2009, dated 2012).

Settings: typically

For `FC1(F)C(F)(F)C(F)(F)C2(F)C(F)(F)C(F)(F)C(F)(F)C(F)(F)C2(F)C1(F)F` (stereo not shown) [perfluorodecalin], the “stable up to (temperature)” value is listed as “up to 400 °C”.
